Data taken from patent US12410124B2 (priority 2019, dated 2025).
Read-outs that look alike come from different tables or passages of the source.

Tested on: fetal rat midbrain neurons
Test: Survival rate of primary midbrain neurons induced by MPP+ (CCK-8)
Format: cell-based
Details: for viability at 5 µM / viability at 10 µM / viability at 20 µM: Rattus norvegicus, Neuron, read-out: Survival rate (%)
Source text: The main pathological feature of Parkinson's disease (PD) lies in the degeneration and loss of dopaminergic neuron in the substantia nigra-striatum of the midbrain. 1-Methyl-4-phenylpyridinium (MPP+) has a high affinity to dopamine carriers and a selective toxicity on dopaminergic neurons. Thus, MPP+ is one of the most ideal classic neurotoxins for establishing PD cell models. The primary cell culture of fetal rat midbrain is often used to establish PD cell models in recent years. Although it is more cumbersome and has higher technical requirements than cell line culture, it is closer to the pathological characteristics of PD. Thus, a PD cell model is established using neurons from the primary cell culture of fetal rat midbrain under MPP+ induction, to evaluate the protective effect of target compounds on the model neurons.
The midbrain was separated from a fetal rat of a 15-day-pregnant SD rat and cut into pieces, then subjected to trypsin digestion, pipetting, screen filtration, and resuspension steps, and inoculated in a 24-well cell culture plate pre-coated with poly-D-lysine. 12 hours after culture, cytarabine was added to inhibit the growth of glial cells. On the 5th day of neuron growth, the toxin MPP+ can be added to make a PD cell model. When detecting the activity of a target compound, the target compound was pre-incubated with midbrain neurons for 3 h, then MPP+ was added, and after 48 h co-incubation the neuronal viability was detected by CCK-8 method and the neuronal survival rate was calculated to evaluate the inhibitory activity of the target compound on the midbrain neuronal PD damage. The experiment included blank control group, MPP+ model group, positive control group (caffeic acid phenethyl ester, CAPE), prototype control group (styryl sulfone compounds 3B, 3C, 3D, and 3G), and target compound group (prepared according to Examples 1-22 in the invention).

[1] = 5 μM, 3 h pre-incubation, 48 h with MPP+
[2] = 10 μM, 3 h pre-incubation, 48 h with MPP+
[3] = 20 μM, 3 h pre-incubation, 48 h with MPP+

Compound	viability at 5 µM (48 h) [%]	viability at 10 µM (48 h) [%]	viability at 20 µM (48 h) [%]	viability at 5 µM [1] [%]	viability at 10 µM [2] [%]	viability at 20 µM [3] [%]	survival rate compared with the styryl sulfone prototype compounds (no concentration stated)
Cc1ccc(S(=O)(=O)Oc2ccc(CS(=O)(=O)/C=C/c3ccc(OS(=O)(=O)c4ccc(C)cc4)c(OC(=O)N(C)S(=O)(=O)c4ccc(C)cc4)c3)cc2)cc1 [Compound S6-6, (E)-2-(N-methyl-N-p-tosylcarbamoyloxy)-4-{2-[(4-p-tosyloxyphenyl)mesyl]ethenyl}phenyl p-toluenesulfonate]	72 ± 2.47	83.2 ± 4.07	91.7 ± 3.18				
CCN(CC)C(=O)Oc1ccc(/C=C/S(=O)(=O)Cc2ccc(C(F)(F)F)cc2)cc1OC(=O)N(CC)CC [Compound B1-1, (E)-4-{2-[(4-trifluoromethylphenyl)mesyl]ethenyl}-1,2-phenylenebis(diethylcarbamate)]				78.5 ± 4.12	89.7 ± 2.89	93.8 ± 1.59	significantly increased
CC[Si](CC)(Oc1ccc(C(Cl)S(=O)(=O)/C=C/c2ccc(OC(=O)N3CC(C)OC(C)C3)c(OC(=O)c3cccc(Cl)c3OC)c2)cc1)c1ccccc1 (stereo not shown) [Compound R1-5, (E)-4-{2-[4-(diethylphenylsiloxy)phenylchloromesyl]ethenyl}-2-(3-chloro-2-methoxybenzoyloxy)phenyl-2,6-dimethylmorpholine-4-carboxylate]				72.3 ± 2.94	82.5 ± 2.83	90.2 ± 1.76	
